Reference: patent publication US20250059185A1 (Hoffmann-La Roche Inc., priority 2021, published 2025)

What follows are compounds tested against MAGL (Homo sapiens (Human), UniProt Q99685) (assay: 2-AG assay (MAGL inhibitory activity, hydrolysis of 2-arachidonoylglycerol followed by mass spectrometry)). Conditions: 50 pM MAGL protein, 15 min pre-incubation, 30 min incubation at RT.
Assay type: biochemical
Summary of the method: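 Human MAGL (50 pM final) preincubated 15 min at RT with compound (3-fold dilutions, 12.5 μM to 0.8 pM final) in 50 mM TRIS, 1 mM EDTA, 0.01% Tween-20, 2.5% DMSO. Reaction with […] 2-AG ran 30 min at RT, then was quenched with acetonitrile containing d8-arachidonic acid. Arachidonic acid measured by SPE–triple-quad MS (negative ESI), activity from the arachidonic/d8-arachidonic acid intensity ratio.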

Chain of MAGL (Q99685 whole entry, species assumed): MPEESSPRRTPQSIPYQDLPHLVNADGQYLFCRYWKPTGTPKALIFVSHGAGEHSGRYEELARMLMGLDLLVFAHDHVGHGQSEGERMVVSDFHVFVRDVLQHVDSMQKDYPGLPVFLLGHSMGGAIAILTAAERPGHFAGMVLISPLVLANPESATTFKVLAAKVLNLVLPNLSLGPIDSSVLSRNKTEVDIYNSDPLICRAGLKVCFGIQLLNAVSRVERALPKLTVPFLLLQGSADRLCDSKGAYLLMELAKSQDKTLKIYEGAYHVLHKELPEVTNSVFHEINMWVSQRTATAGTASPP

IC50 | SMILES
138 nM | CC1c2nn(C)c(-c3cc(Cl)cc(C4(S(C)(=O)=O)CC4)c3)c2CCN1C(=O)c1cc(F)cc(-c2ccc(=O)[nH]c2)c1Cl (stereo not drawn) [Example 60, 5-[2-Chloro-3-[3-[3-chloro-5-(1-methylsulfonylcyclopropyl)phenyl]-2,7-dimethyl-5,7-dihydro-4H-pyrazolo[3,4-c]pyridine-6-carbonyl]-5-fluoro-phenyl]-1H-pyridin-2-one]
6.18 nM | CC1c2nn(C)c(-c3cc(Cl)cc(C4(NS(C)(=O)=O)CC4)c3)c2CCN1C(=O)c1cc(F)cc(-c2c[nH]c(C#N)c2)c1Cl (stereo not drawn) [Example 84, N-[1-[3-chloro-5-[6-[2-chloro-3-(5-cyano-1H-pyrrol-3-yl)-5-fluoro-benzoyl]-2,7-dimethyl-5,7-dihydro-4H-pyrazolo[3,4-c]pyridin-3-yl]phenyl]cyclopropyl]methanesulfonamide]
1070 nM | CC1c2nn(C)c(-c3cc(Cl)cc(S(N)(=O)=O)c3)c2CCN1C(=O)c1ncn(-c2ccc[nH]c2=O)n1 (stereo not drawn) [Example 59, 3-Chloro-5-[2,7-dimethyl-6-[1-(2-oxo-1H-pyridin-3-yl)-1,2,4-triazole-3-carbonyl]-5,7-dihydro-4H-pyrazolo[3,4-c]pyridin-3-yl]benzenesulfonamide]
1 nM | C[C@H]1c2nn(C)c(-c3cc(F)cc(F)c3)c2CCN1C(=O)c1cc(F)cc(-c2ccc(=O)[nH]c2)c1Cl [Example 29, 5-[2-Chloro-3-[(7S)-3-(3,5-difluorophenyl)-2,7-dimethyl-5,7-dihydro-4H-pyrazolo[3,4-c]pyridine-6-carbonyl]-5-fluoro-phenyl]-1H-pyridin-2-one]
4.35 nM | C[C@H]1c2nn(C)c(-c3cc(F)c(F)c(F)c3)c2CCN1C(=O)c1cc(F)cc(-c2c[nH]c(C#N)c2)c1Cl [Example 92, 4-[2-chloro-3-[(7S)-2,7-dimethyl-3-(3,4,5-trifluorophenyl)-5,7-dihydro-4H-pyrazolo[3,4-c]pyridine-6-carbonyl]-5-fluoro-phenyl]-1H-pyrrole-2-carbonitrile]
0.61 nM | C[C@H]1c2nn(C)c(-c3cc(F)cc(F)c3)c2CCN1C(=O)c1cc(Cl)cc(OCC2CNC(=O)O2)c1Cl (stereo partly drawn) [Example 107, 5-[[2,5-dichloro-3-[(7S)-3-(3,5-difluorophenyl)-2,7-dimethyl-5,7-dihydro-4H-pyrazolo[3,4-c]pyridine-6-carbonyl]phenoxy]methyl]oxazolidin-2-one]
472 nM | C[C@H]1c2nn(C)c(-c3cc(Cl)cc(C4(NS(C)(=O)=O)CC4)c3)c2CCN1C(=O)c1cc(F)cc(-c2cn[nH]c2)c1F [Example 94, N-[1-[3-chloro-5-[(7S)-6-[2,5-difluoro-3-(1H-pyrazol-4-yl)benzoyl]-2,7-dimethyl-5,7-dihydro-4H-pyrazolo[3,4-c]pyridin-3-yl]phenyl]cyclopropyl]methanesulfonamide]
163 nM | C[C@H]1c2nn(C)c(-c3cc(F)cc(F)c3)c2CCN1C(=O)c1ncn(-c2ccc(O)nc2)n1 [Example 33, [(7S)-3-(3,5-Difluorophenyl)-2,7-dimethyl-5,7-dihydro-4H-pyrazolo[3,4-c]pyridin-6-yl]-[1-(6-hydroxy-3-pyridyl)-1,2,4-triazol-3-yl]methanone]
4.88 nM | C[C@H]1c2nn(C)c(-c3cc(F)cc(F)c3)c2CCN1C(=O)c1cc(F)cc(OC[C@H]2CNC(=O)N2)c1Cl [Example 115, (4R)-4-[[2-chloro-3-[(7S)-3-(3,5-difluorophenyl)-2,7-dimethyl-5,7-dihydro-4H-pyrazolo[3,4-c]pyridine-6-carbonyl]-5-fluoro-phenoxy]methyl]imidazolidin-2-one]
